Experimental data: patent US9580409B2, “Modulators of opioid receptors and methods of use thereof” (priority 2011, dated 2017)
Where two headings read alike, the source gives them in different places.

Biological target: mu-opioid receptor (Homo sapiens, UniProt P35372)
Experiment: biochemical
Conditions: read-out: GTP Activity
[1] = […], class symbol combines EC50 and efficacy

mu-opioid receptor, sequence (P35372 whole entry, species assumed): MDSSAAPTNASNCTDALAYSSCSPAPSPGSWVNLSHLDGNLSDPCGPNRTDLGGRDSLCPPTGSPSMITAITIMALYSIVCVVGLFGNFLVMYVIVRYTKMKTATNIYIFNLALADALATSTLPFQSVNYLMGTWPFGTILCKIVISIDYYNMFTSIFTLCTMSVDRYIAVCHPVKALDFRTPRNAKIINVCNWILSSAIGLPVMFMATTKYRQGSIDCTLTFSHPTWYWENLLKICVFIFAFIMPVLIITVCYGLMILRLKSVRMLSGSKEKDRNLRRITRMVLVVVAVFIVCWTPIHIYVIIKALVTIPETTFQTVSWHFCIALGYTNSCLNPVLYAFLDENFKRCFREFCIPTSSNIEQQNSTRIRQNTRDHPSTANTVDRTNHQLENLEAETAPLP

| SMILES | EC50 [1] | EC50 (class symbols) |
| --- | --- | --- |
| CCC(=O)N1CC2(C1)C(=O)C(c1nc3ccccc3[nH]1)=C(N)N2c1cc(OC)cc(OC)c1 [compound 249] | 1000 to 10000 nM |  |
| Cc1ccc(C)c(N2CC(=O)C(c3nc4c(C)cccc4[nH]3)=C2N)c1 [compound 17] |  | 1000 to 10000 nM |
| COc1cc(OC)cc(N2C(N)=C(c3nc4ccccc4[nH]3)C(=O)C2(C)O)c1 (stereo not shown) [compound 112] |  | 100 to 1000 nM |
| CCc1cc(CC)cc(N2C(N)=C(c3nc4ccccc4[nH]3)C(=O)C2(C)C)c1 [compound 156] |  | 100 to 1000 nM |
| COc1cc(OC)cc(N2C(N)=C(c3nc4ccccc4[nH]3)C(=O)[C@H]2CCO)c1 [compound 241] | 100 to 1000 nM |  |
| COc1cc(OC)cc(N2C(N3CCCC3)=C(c3nc4ccccc4[nH]3)C(=O)C2(C)C)c1 [compound 144] |  | 1000 to 10000 nM |
| COc1cc(OC)cc(N2CC(=O)C(c3nc4cc(OC)ccc4[nH]3)=C2N)c1 [compound 7] |  | 1000 to 10000 nM |
| CNC1=C(c2nc3ccccc3[nH]2)C(=O)C(C)(CCOC)N1c1cc(OC)cc(OC)c1 (stereo not shown) [compound 220] | < 100 nM |  |
| CNC1=C(c2nc3ccccc3n2C)C(=O)C(C)(C)N1c1cc(OC)cc(OC)c1 [compound 81] |  | 100 to 1000 nM |
| CCC1(O)C(=O)C(c2nc3ccccc3[nH]2)=C(NC)N1c1cc(OC)cc(OC)c1 (stereo not shown) [compound 115] |  | 100 to 1000 nM |
| COc1cc(OC)cc(N2C(N)=C(c3nc4ccccc4[nH]3)C(=O)C23CCNC3)c1 (stereo not shown) [compound 182] |  | 100 to 1000 nM |
| CCC1(O)C(=O)C(c2nc3ccccc3[nH]2)=C(N)N1c1cc(OC)cc(OC)c1 (stereo not shown) [compound 113] |  | 100 to 1000 nM |
| COc1ccc(OC)c(N2CC(=O)C(c3nc4c(C)cccc4[nH]3)=C2N)c1 [compound 16] |  | 1000 to 10000 nM |
| CNC1=C(c2nc3ccccc3[nH]2)C(=O)C2(CCC(O)C2)N1c1cc(OC)cc(OC)c1 (stereo not shown) [compound 311] | < 100 nM |  |
| CNC1=C(c2nc3ccccc3[nH]2)C(=O)C(C)(CNC(=O)COC)N1c1cc(OC)cc(OC)c1 (stereo not shown) [compound 283] | < 100 nM |  |
| CNC1=C(c2nc3ccccc3[nH]2)C(=O)[C@](C)(CCO)N1c1cc(OC)cc(OC)c1 [compound 262] | < 100 nM |  |

| SMILES | EC50 [1] | EC50 (class symbols) |
| --- | --- | --- |
| CNC1=C(c2nc3ccccc3[nH]2)C(=O)C(C)(CCNC(=O)COC)N1c1cc(OC)cc(OC)c1 (stereo not shown) [compound 286] | < 100 nM |  |
| CNc1c(-c2nc3ccccc3[nH]2)c(=O)n(CCOC)n1-c1cc(OC)cc(OC)c1 [compound 266] | < 100 nM |  |
| COc1cc(OC)cc(N2C(N)=C(c3nc4ccccc4[nH]3)C(=O)C23CNC3)c1 [compound 189] |  | 1000 to 10000 nM |
| COCC1(C)C(=O)C(c2nc3ccccc3[nH]2)=C(N)N1c1cc(OC)cc(OC)c1 (stereo not shown) [compound 296] | 100 to 1000 nM |  |
| CN(C)c1cccc(N2C(N)=C(c3nc4ccccc4[nH]3)C(=O)C2(C)C)c1 [compound 164] |  | 1000 to 10000 nM |
| COc1cc(OC)cc(N2C(N)=C(c3nc4ccccc4[nH]3)C(=O)C23CCOCC3)c1 [compound 224] | 100 to 1000 nM |  |
| CNC1=C(c2nc3ccccc3[nH]2)C(=O)C(C)(C)N1c1cc(C)cc(C)c1 [compound 105] |  | 100 to 1000 nM |
| CNC1=C(c2nc3ccccc3[nH]2)C(=O)C2(CCCN(C(C)=O)C2)N1c1cc(OC)cc(OC)c1 (stereo not shown) [compound 273] | 100 to 1000 nM |  |
| COc1cc(OC)cc(N2C(N)=C(c3nc4ccccc4[nH]3)C(=O)[C@]2(C)CCNC(C)=O)c1 [compound 301] | 100 to 1000 nM |  |
| Cc1cc(C)cc(N2C(N)=C(c3nc4ccccc4[nH]3)C(=O)C2(C)C)c1 [compound 102] |  | 100 to 1000 nM |
| CNC1=C(c2nc3ccccc3[nH]2)C(=O)C2(CNC(=O)C2)N1c1cc(OC)cc(OC)c1 (stereo not shown) [compound 274] | 100 to 1000 nM |  |
| CNC1=C(c2nc3ccccc3[nH]2)C(=O)C(C)(O)N1c1cc(OC)cc(OC)c1 (stereo not shown) [compound 114] |  | 100 to 1000 nM |
| CNC1=C(c2nc3ccccc3[nH]2)C(=O)C(C)(CC(C)O)N1c1cc(OC)cc(OC)c1 (stereo not shown) [compound 309] | < 100 nM |  |
| CNC1=C(c2nc3ccccc3[nH]2)C(=O)C2(COC2)N1c1cc(OC)cc(OC)c1 [compound 194] |  | < 100 nM |
| COc1cc(OC)cc(N2C(N)=C(c3nc4ccccc4[nH]3)C(=O)C2(C)OC)c1 (stereo not shown) [compound 119] |  | 1000 to 10000 nM |
